Publication PMC10239758 (European journal of medicinal chemistry, 2023)
≈ marks a conversion by molar mass, not a printed value.

How the values were obtained:
Mtb TF274 = assay: microbe, parasite or virus in culture; assay type: cell-based; settings: Mycobacterium tuberculosis, TF274, read-out: Mtb MIC TF274/ XDR
mutant Mtb strain IAR2 = assay type: cell-based, Mycobacterium tuberculosis
Mtb KZN494 = assay: microbe, parasite or virus in culture; assay type: cell-based; settings: Mycobacterium tuberculosis, KZN494, read-out: Mtb MIC KZN494/ MDR

c1ccc(-c2ccc(-c3ccnc(CN4CCC5(CCCC5)CC4)c3)cc2)cc1 [Compound 62, 8-((4-([1,1'-Biphenyl]-4-yl)pyridin-2-yl)methyl)-8-azaspiro[4.5]decane]
MIC (Mtb TF274): 0.0039 µg/mL (≈ 0.0102 µM) | MIC IAR2 (mutant Mtb strain IAR2): 1 µg/mL (≈ 2.61 µM) | MIC (Mtb KZN494): 0.0156 to 0.0313 µg/mL (≈ 0.0408 to 0.0818 µM)
